Laboratory results reported in ChEMBL document CHEMBL4024791, “Identification of Morpholino-2H-pyrido[3,2-b][1,4]oxazin-3(4H)-ones as Nonsteroidal Mineralocorticoid Antagonists” (J Med Chem, 2018).
Converted amounts (≈) assume the structure as drawn.

Columns and labels:
hERG (KCNH2) = hERG (KCNH2) (Homo sapiens, UniProt Q12809); test: Displacement of [3H]-dofetilide from human ERG at 10 uM; settings: probe [3H]-dofetilide
[1] = Apparent permeability in RRCK cells; type: ADME, cell-based, Canis lupus familiaris, MDCKII-LE; settings: dog, MDCK
MDR1 (P-gp) = test: Apparent permeability across basolateral to apical side in MDCK cells expressing human MDR1; type: ADME, cell-based, Canis lupus familiaris; settings: dog
[2] = Apparent permeability across apical to basolateral side in RRCK cells; type: ADME, cell-based, Canis lupus familiaris, MDCKII-LE; settings: dog, MDCK
Progesterone receptor = target: T1, Progesterone receptor (Homo sapiens, UniProt P06401); test: Displacement of [3H]-progesterone from recombinant human His-tagged PR-b after 4 hrs by liquid scintillation counting
T1 sequence (P06401 whole entry): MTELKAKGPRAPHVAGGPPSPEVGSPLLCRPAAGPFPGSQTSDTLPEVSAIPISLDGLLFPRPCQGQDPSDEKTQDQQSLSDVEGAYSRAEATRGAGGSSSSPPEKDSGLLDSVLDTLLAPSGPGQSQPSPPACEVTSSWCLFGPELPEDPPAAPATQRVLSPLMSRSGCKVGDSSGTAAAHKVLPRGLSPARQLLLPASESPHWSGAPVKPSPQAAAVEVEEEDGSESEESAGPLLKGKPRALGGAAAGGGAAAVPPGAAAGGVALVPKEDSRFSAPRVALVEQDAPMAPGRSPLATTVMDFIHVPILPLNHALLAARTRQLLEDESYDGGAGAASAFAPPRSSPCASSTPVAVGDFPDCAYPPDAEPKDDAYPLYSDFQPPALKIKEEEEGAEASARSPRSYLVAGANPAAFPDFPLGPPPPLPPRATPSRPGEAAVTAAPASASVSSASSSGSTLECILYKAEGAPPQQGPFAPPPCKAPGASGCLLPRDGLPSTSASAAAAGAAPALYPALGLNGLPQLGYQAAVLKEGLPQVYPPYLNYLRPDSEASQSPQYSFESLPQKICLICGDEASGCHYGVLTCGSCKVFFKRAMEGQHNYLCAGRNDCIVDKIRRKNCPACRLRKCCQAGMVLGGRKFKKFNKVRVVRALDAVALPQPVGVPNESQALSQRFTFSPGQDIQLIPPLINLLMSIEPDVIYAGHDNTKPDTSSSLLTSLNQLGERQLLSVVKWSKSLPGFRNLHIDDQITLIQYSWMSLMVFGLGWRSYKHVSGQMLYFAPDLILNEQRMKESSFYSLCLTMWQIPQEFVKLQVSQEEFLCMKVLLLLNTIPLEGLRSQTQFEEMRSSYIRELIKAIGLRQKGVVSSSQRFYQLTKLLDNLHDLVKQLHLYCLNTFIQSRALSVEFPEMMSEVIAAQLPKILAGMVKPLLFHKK

[3] = Fraction unbound in rat plasma; type: ADME, cell-free
[4] = Fraction unbound in dog plasma; type: ADME, cell-free, Canis lupus familiaris
[5] = AUC in Wistar rat at 500 mg/kg, po administered as single dose measured up to 8 hrs post dose by LC-MS analysis; type: ADME, organism-based; parameters: dose 500 mg/kg, time < 8 hr, route oral; settings: in vivo
Salmonella typhimurium = test: Genotoxicity in Salmonella typhimurium by Ames test; type: toxicity; settings: salmonella enterica subsp. enterica serovar typhimurium
Estrogen receptor = target: T2, Estrogen receptor (Homo sapiens, UniProt P03372); test: Binding affinity to ERalpha (unknown origin)
T2 sequence (P03372 whole entry): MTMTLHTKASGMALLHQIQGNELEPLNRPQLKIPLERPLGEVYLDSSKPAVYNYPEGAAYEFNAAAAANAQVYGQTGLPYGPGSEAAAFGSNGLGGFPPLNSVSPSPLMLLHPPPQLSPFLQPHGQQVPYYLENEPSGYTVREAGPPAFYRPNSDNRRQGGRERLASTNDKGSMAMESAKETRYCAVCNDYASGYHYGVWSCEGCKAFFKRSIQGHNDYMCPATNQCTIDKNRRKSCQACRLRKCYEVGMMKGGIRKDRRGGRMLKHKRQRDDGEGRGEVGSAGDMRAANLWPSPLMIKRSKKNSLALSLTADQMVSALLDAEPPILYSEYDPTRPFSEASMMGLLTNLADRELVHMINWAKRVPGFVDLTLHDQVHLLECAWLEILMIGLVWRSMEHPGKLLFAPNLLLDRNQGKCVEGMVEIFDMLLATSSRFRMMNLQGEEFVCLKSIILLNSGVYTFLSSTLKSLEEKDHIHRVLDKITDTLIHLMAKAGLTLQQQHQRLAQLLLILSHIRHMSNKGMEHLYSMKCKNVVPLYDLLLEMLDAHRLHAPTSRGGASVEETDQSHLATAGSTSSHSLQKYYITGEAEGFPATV

[6] = Volume of distribution at steady state in rat; type: ADME; settings: in vivo, read-out: Vdss
[7] = Thermodynamic solubility of the compound in phosphate buffered saline at pH 6.5; type: physicochemical; settings: read-out: Therm_solubility

hERG (KCNH2), sequence (Q12809 whole entry): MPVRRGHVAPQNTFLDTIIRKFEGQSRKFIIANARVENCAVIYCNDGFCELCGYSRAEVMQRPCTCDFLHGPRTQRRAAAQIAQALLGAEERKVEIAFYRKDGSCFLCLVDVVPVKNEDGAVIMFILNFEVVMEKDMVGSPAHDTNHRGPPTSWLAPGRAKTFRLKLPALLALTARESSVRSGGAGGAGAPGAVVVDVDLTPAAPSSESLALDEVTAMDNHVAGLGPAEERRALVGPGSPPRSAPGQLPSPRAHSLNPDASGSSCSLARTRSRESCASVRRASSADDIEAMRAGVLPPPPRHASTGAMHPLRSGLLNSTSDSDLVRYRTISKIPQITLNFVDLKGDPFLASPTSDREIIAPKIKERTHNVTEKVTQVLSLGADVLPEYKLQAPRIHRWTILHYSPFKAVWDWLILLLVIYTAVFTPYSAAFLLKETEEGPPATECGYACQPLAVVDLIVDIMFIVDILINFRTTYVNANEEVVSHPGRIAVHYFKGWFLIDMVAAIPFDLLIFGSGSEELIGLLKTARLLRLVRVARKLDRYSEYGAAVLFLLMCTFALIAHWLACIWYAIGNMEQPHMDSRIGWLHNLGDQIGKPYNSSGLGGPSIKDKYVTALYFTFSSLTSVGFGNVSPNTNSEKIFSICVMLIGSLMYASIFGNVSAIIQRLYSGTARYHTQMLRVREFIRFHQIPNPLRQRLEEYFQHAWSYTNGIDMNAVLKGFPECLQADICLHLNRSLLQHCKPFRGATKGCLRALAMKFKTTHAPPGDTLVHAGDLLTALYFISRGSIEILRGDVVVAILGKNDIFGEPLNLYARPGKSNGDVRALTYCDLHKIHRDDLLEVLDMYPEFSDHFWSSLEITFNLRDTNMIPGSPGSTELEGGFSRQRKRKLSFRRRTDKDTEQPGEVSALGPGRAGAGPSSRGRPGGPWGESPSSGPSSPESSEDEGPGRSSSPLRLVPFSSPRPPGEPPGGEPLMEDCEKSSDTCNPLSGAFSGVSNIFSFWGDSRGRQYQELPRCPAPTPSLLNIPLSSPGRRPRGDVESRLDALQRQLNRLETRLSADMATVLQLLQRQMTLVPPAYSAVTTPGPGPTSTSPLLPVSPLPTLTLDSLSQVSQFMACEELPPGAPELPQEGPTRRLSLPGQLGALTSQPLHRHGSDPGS

Row | Papp [1] | Papp B→A (MDR1 (P-gp)) | Papp A→B [2] | IC50 (Progesterone receptor) | fraction unbound [3] | fraction unbound [4] | AUC at 8 h [5] | IC50 (Estrogen receptor) | Vd [6] | solubility thermodynamic [7] | SMILES | inhibition at 10 µM (hERG (KCNH2)) | Activity (Salmonella typhimurium)
1 | 29.3 ×10⁻⁶ cm/s | – | – | – | – | – | – | – | – | – | O=C1COc2ccc(N3CCOC[C@H]3c3ccccc3)cc2N1 | 5% | –
2 | – | 24.7 ×10⁻⁶ cm/s | 45.9 ×10⁻⁶ cm/s | > 10 µM | 0.15 | 0.136 | 13500 ng·h/mL | > 10 µM | 6.15 L/kg | 17 µM (≈ 5.53 µg/mL) | C[C@@H]1CN(c2ccc3c(n2)NC(=O)CO3)[C@H](c2ccccc2)CO1 | – | Non-Toxic
